This note sets out measurements from patent US10583173B2, “Methods of treating or preventing pruritis by blocking natriuretic polypeptide b” (priority 2013, dated 2020).

Where no end group is shown, it is not given here.

Common to all, as to type: in vivo, mouse
The test system of assay [1] is neurons in the dorsal root ganglion (DRG) and superficial dorsal horn (sDH). In words: Immediate early gene induction (Egr1 in DRG, cFos in sDH) by ISH. On the procedure:
To gain additional evidence that systemic Nppb activates a central itch pathway, the pattern of cellular activation of neurons in the dorsal root ganglion (DRG) and superficial dorsal horn (sDH) was compared by analyzing induction of immediate early gene expression. The skin was stimulated by pruritogen and injections of noxious compounds and the robust induction of immediate early genes, Egr1 and cFos (in the DRG and sDH respectively) was evaluated. Intradermal injection of chloroquine was utilized to excite MrgprA3 peripheral DRG neurons. […] The number of positive Egr-1-positive cells correlated well with the previously reported numbers of MrgprA3-expressing receptor neurons in DRG. […] Therefore, the initial and later cellular stages of the pruriceptive neural pathway could be reliably monitored biochemically and anatomically and itch signaling could be distinguished from that elicited by the noxious agent formalin.
It was reasoned that if ivNppb was directly activating centrally, then induction of immediate early gene expression would be seen in sDH-neurons and not DRG neurons. […] As expected from the generalized scratching responses evoked by ivNppb, in both hemispheres of the spinal cord and along the entire length of the spinal cord, cFos-activated neurons could be detected. Furthermore, also consistent with the itch-behavioral result, the profile of cFos-activated neurons in the sDH was similar to that generated by epidermal injection of chloroquine.

Assay [2] has as its system Wild-type mice (C57BL/6). In words: Histamine-induced scratching (bouts of scratching after intradermal histamine). The note with it: intradermal histamine 100 μg in 10 μl, scratching bouts over 30 minutes, vs histamine alone/untreated. The text has this:
(§1) All experiments using animals followed NIH guidelines and were approved by the National Institute of Dental and Craniofacial ACUC. The targeted JM8A3 ES-cell clone A04 with disruption of the Nppb gene was obtained from Mouse Biology Program (MBP), UC Davis and was used to generate chimeric mice. Chimeras were crossed with C57BL/6 mice and heterozygous offspring were mated to generate paired knockouts and controls. Transgenic (Tg) (gastrin releasing peptide (GRP)-enhanced green fluorescent protein (EGFP)) animals (Gong et al., Nature, 425:917 (2003)) were employed to localize expression of GRP. Male C57BL/6 (8-14 weeks) mice were used for selective toxin ablation and GRP-antagonist itch experiments. Ablation of Npra and GRP-receptor-expressing spinal cord interneurons was accomplished by intrathecal (segment L3/4) injection of Nppb-saporin (5 μg in 10 μl; Advanced targeting Systems, San Diego, Calif.) and GRP-saporin (2.5 μg) respectively. Experiments were initiated two weeks after toxin injection.
(§2) Itch inducing substances (see Table 1) were injected intradermally into the shoulder of mice and numbers of scratching bouts assessed over 30 minutes. […] Table 1 also indicates the receptors or mechanisms believed to be activated by the various compounds in the itch response pathway.
(§3) Pretreatment with GRP antagonist deamino-Phe19,D-Ala24,D-Pro26-D-Phe27-GRP (Yegen et al., Regulatory Peptides, 61:175 (1996)) (1 nM in 10 μl) was used to block GRP-receptor.
Wild-type mice (C57BL/6) were administered histamine alone, a combination of histamine and a GRP antagonist, or a combination of histamine and anantin. […] to another receptor in the itch pathway and was used as a control. Bouts of scratching were counted.

The test system of assay [3] is mice. As to the kind of experiment: Scratching after lumbar intrathecal injection of Nppb.
Source text: as §1, §3
(§4) How Nppb induces this stereotyped scratch response was investigated. It was hypothesized that because this peptide is prominently expressed in somatosensory neurons, the most plausible explanation for its role would be if it acted as a specific itch-related neuromodulator (or neurotransmitter) in the spinal cord. […] Intrathecal injection of Nppb into Nppb^−/− mice also led to an equivalent phenotype (FIG. 1E). No significant differences in response between genotypes were found (Student's t-test). Loss of Nppb in sensory afferents was thus responsible for the pruriceptive deficits seen in mutant mice. Without being bound to a particular theory or mechanism, it is believed that Nppb-expression delineates the subset of somatosensory neurons that detect pruritic agents and that central release of Nppb from these neurons is necessary for the itch response.

Assay [4] deals with mice. As to the kind of experiment: Scratching after intrathecal injection of GRP.
Source text: as §1, §3, §4

Assay [5] deals with Wild-type mice (C57BL/6). In words: Scratching after intravenous administration of natriuretic peptides (ivNppb). On the procedure:
Elevated blood Nppb is found in kidney disalysis patients. Accordingly, the effect of elevated blood Nppb on itching in mice was evaluated. Wild-type mice (C57BL/6) were intravenously administered Nppb and were untreated or treated with GRP-antagonist or Nppb saporin. The bouts of scratching were counted.
Nppb deficient or wild-type (C57BL/6) mice were intravenously (i.v.) administered Nppb, Nppa, or Nppc, and the bouts of scratches were measured.
To mimic the high concentration of Nppb found in renal itch patients, mice were i.v. administered Nppb (via tail vein injection). […] Approximately ten minutes after administration of Nppb, mice began to persistently scratch their flank, face, hind quarters and abdomens. This behavior slowly diminished and almost completely ceased approximately 1 hour after injection. The induction of scratching was dose dependent, with a 1.2 μg/kg dose producing saturating behavioral responses. In all subsequent experiments, a dose of 1.2 μg/kg Nppb (abbreviated as “ivNppb”) was used, and bouts of scratching were counted over a period of 1 hour.
Npra neurons themselves express GRP and are thought to release GRP which, in turn, activates GRPR-cells.

Assay [6] concerns mice. As to the kind of experiment: Scratching after intradermal injection of pruritogens. The note with it: control (wild-type) animals; doses of Table 1. On the procedure:
as §2
Intradermal injections were performed. The number of scratching bouts for substances that directly activate pruriceptors was recorded. The number of scratching bouts after injection with compound 48/80, which causes itch via an indirect route (McNeil et al., Neuroscience Bulletin, 28:100 (2012)), was also recorded. All of these agents (Table 1) reliably triggered multiple bouts of scratching in control animals (FIG. 1D), but Nppb^−/− mice were almost completely insensitive to the full range of pruritic substances tested (FIG. 1D).

Where [7] appears, read: lumbar 4-5 segment intrathecal injection.

With `C=O` [formalin], in assay [1], the “Egr1 expression in DRG neurons” value is recorded as “induced Egr-1 expression in a far larger number” and the “cFos induction in superficial dorsal horn (sDH) neurons” value (“cFos induction” for short) is on record as “induced cFos expression”.

Regarding “deamino-Phe19,D-Ala24,D-Pro26-D-Phe27-GRP [GRP antagonist]”, the results for the “bouts of scratching after histamine injection, effect of treatment” value in the assay with Wild-type mice (C57BL/6) [2] and in the assay with Wild-type mice (C57BL/6) [2] (listed as GRP-antagonist) were “attenuated scratching” and “statistically different”, respectively. Further, in the assay with mice [3] (Nppb 5 μg in 10 μl intrathecal, vs untreated mice), the “scratching induced by lumbar intrathecal injection of Nppb, effect of pretreatment” value is recorded as “strongly attenuated”. Further, in the assay with mice [4] (GRP 1 nM in 10 μl intrathecal, vs untreated mice), the “scratching induced by intrathecal GRP, effect of pretreatment” value is on record as “attenuated scratching”. Besides, the “i.v. Nppb-induced itch, effect of pretreatment” value in the assay with Wild-type mice (C57BL/6) [5] (i.v. Nppb, bouts of scratching, vs untreated) is listed as “blocked”.

Take anantin: the “bouts of scratching after histamine injection, effect of treatment” value in the assay on Wild-type mice (C57BL/6) [2] is “attenuated histamine-induced itch”; in the assay on Wild-type mice (C57BL/6) [2] (listed as Anantin), “statistically different”.

For Nppb, the “scratching induced by intrathecal injection of the peptide” value in the assay on mice [3] (Nppb 5 μg in 10 μl, lumbar 4-5 segment, control and Nppb−/− mice) is listed as “induced repeated bouts of scratching”. Also, the “onset of pruriceptive response after intrathecal Nppb” value in the assay with mice [3] (setting [7]) is around 5 min. Moreover, in the assay with Wild-type mice (C57BL/6) [5] (i.v. tail vein), the “scratching/itch induced by i.v. administration of the peptide” value was “robust whole body scratching behavior”, the “time after i.v. administration at which persistent scratching began” value is on record as “Approximately ten” and the “time after i.v. injection at which scratching almost completely ceased” value was “approximately 1 hour”. Besides, the “dose producing saturating behavioral responses (scratching)” value in the assay on Wild-type mice (C57BL/6) [5] (i.v., dose dependent) stood at 1.2 µg/kg. Also, in assay [1], the “Egr1 expression in DRG neurons” value is “did not induce expression of Egr1” and the “cFos induction” value was “caused cFos induction”.

As for “GRP: gastrin releasing peptide (APVSTGAGGGTVLAKMYPRGSHWAVGHLM; ends and bridges not checked; UniProt Q8R1I2 24-52, looked up)”, the “itch responses induced by intrathecal injection of the peptide” value in the assay on mice [4] (GRP 1 nM in 10 μl, mutant and control animals) is listed as “triggered itch responses”. Besides, the “onset of pruriceptive response after intrathecal GRP” value in the assay with mice [4] (setting [7]) is around 5 min.

Consider `CCN(CC)CCCC(C)Nc1ccnc2cc(Cl)ccc12` (stereo not drawn) [chloroquine], for which, in assay [1], the “Egr1 expression in DRG neurons” value is “induced Egr1 expression” and the “cFos induction” value is listed as “induced cFos expression”. The “scratching / itch-behavior after intradermal injection of pruritic agent” value in the assay with mice [6] is reported as “triggered itch-behavior”.

Consider “Nppc: C-type natriuretic peptide, selective agonist for natriuretic peptide receptor Nprb (GLSKGCFGLKLDRIGSMSGLGC; ends and bridges not checked; cysteine pairing not given here; UniProt Q61839 105-126, looked up)”, for which the “scratching/itch induced by i.v. administration of the peptide” value with Wild-type mice (C57BL/6) [5] (i.v. (tail vein), listed as C-type natriuretic peptide) is given as “produced no observable reaction”; in the assay on Wild-type mice (C57BL/6) [5] (i.v. tail vein), “did not induce significant itch”.
